Paper PMC10385664, “Projection of Target Drug Particle Size in Oral Formulations Using the Refined Developability Classification System (rDCS)” (Pharmaceutics, 2023)

Key:
[1] = Conversion of Caco-2 Papp(A⟹B) to effective human permeability (Simcyp Papp–Peff correlation); conditions: for estimated/predicted human Peff: estimated from Caco-2 permeability data; for Estimated human Peff: from Papp(A⟹B) without inhibitor, atenolol and propranolol as calibrators
Procedure: The Caco-2 Papp values were averaged. […] Estimated Peff values were used as input for the rDCS and rtarget calculations. […]
μM) to study transporter‐mediated efflux effects. In those experiments, elacridar was included in both compartments during the equilibration time and assay. The starting concentration (C0) was confirmed by […]
Details of the analytical standard method are presented in Ta ble S8. Measurements were performed in duplicate and reference […]
Papp values were averaged. To […]
permeability was monitored during the experiment using fluorimetric analysis. The pre‐defined lucifer […]
The built‐in literature Papp‐Peff […]
propranolol as calibrator substances was used. Estimated Peff values were used as input for the rDCS and rtarget calculations.
Table S8. Details of the LC‐MS/MS method for quantification of API concentrations in Caco‐2 permeability study […]
Acquity™ HSS T3 (1.8 μm) 2.1 x 30 mm (Waters Ltd, Herts, UK) fitted with Column SecurityGuard™ ULTRA Fully Porous Polar C18 cartridge (Phenomenex, […]
Mobile phase A 10 mM ammonium formate + 0.1 % v/v formic acid in water
Mobile phase B 100% Methanol
Gradient time profile 0.60 5 95

Caco-2 cells = test: Caco-2 permeability assay (pH 6.5/7.4 gradient, ± elacridar)
Procedure: In vitro permeability studies were performed at Cyprotex Discovery Ltd. (Macclesfield, UK) using a high-throughput Caco-2 permeability assay. Permeability at 37 °C was assessed from the apical to basolateral side (A⟹B) and in opposite direction (B⟹A) applying a pH gradient with pH 6.5 in the apical and pH 7.4 in the basolateral compartment (Hanks Balanced Salt Solution, HBSS). After an incubation of 120 min, samples were diluted for analysis via liquid chromatography coupled with tandem mass spectrometry (LC-MS/MS). […] Experiments were performed in absence and presence of the P-glycoprotein (P-gp) inhibitor elacridar (10 µM) to study transporter-mediated efflux effects. The dosing solutions contained the API (10 µM) in HBSS, and DMSO in a concentration of ≤1% v/v. Lucifer yellow (100 µM) was included as fluorescent integrity marker. Further experimental details are provided in Supplementary Materials.
The apparent permeability coefficients (Papp) were calculated according to Equation (27):(27) Papp=dQ/dt/C0·A where dQ/dt is the permeation rate of the API across the cell monolayer, C0 is the starting concentration of the API in the dosing solution and A is the surface area of the cell monolayer. The efflux ratios (ERs) were calculated from the B⟹A and A⟹B Papp values to estimate whether P-gp mediated efflux was involved in the transport of the APIs. The mass balance (% recovery) was calculated from the sum of the API recovered from the acceptor and donor compartments at the end of the experiment, divided by the initial donor amount.
Table S6. Gradient of the UPLC method for analysis of lemborexant.
Table S7. Gradient of the UPLC method for analysis of istradefylline.
S.2.5. rDCS Standard Investigations: Caco‐2 permeability studies
Caco‐2 cells were obtained from the American Type Culture Collection (ATCC, Manassas, VA, USA) and used between passage numbers 40 to 60. The cells were seeded onto Millipore Multiscreen Transwell plates at a density of 1 x 10^5 cells/cm2 and cultured in Dulbeccoʹs Modified Eagleʹs Medium (DMEM). The medium was changed every two or three days. Ce l l culture was carried out at 37 °C in an atmosphere of 5 % CO2 with a relative humidity of 95 %. The permeability assay was performed on day 20.
In vitro permeability was assessed wit h a high‐throughput Caco‐2 permeability assay. The assay was prepared by rinsing apical and basolateral monolayer surfaces twice with Hanks Balanced Salt Solution (HBSS) at the desired pH and 37 °C. Subsequently, cells in the apical and basolateral compartments were incubated with HBSS at the desired pH for 40 min. A pH gradient with pH 6.5 in the apical compartment and pH 7.4 in the basolateral compartment was applied. Dosing solutions containing the API (10 μ M) were prepared by diluting a concentrated API solution in DMS O with HBSS. The final DMSO concentration was ≤ 1% v/v. Lucifer yellow (100 μM) was included in the dosing solution as fluorescent integrity marker. For the assessment of the permeability from the apical to basolateral side (A⟹B), HBSS in the apical compartment was replaced with the dosing solution. The apical inserts were placed into a companion plat e containing fresh buffer with 1% v/ v DMSO. For the assessment of the permeability from the basolateral to […]
apical side (B⟹A), HBSS was removed from the companion plate and replaced with the solution of drug in HBSS. Fresh HBSS was added to the apical insert, which was then placed into the companion plate.
Experiments were performed in absence and presence of the P‐glycoprotein (P‐gp) inhibitor elacridar (10 μM) to study transporter‐mediated efflux effects. In those experiments, elacridar was included in both compartments during the equilibration time and assay. The starting concentration (C0) was confirmed by sampling from the dosing solution immediately before dosing into the cell pl ates. After incubation of 120 minutes, the apical inserts and companion plates were separated for sampling from both compartments.

Row | SMILES | estimated/predicted human Peff [1] [×10⁻⁶ cm/s] | Estimated human Peff [1] [×10⁻⁶ cm/s] | permeability assessment (Caco-2 cells; against antipyrine, propranolol and atenolol as comparators) | permeability assessment (Caco-2 cells; Caco-2)
1 | CCn1c(=O)c2c(nc(/C=C/c3ccc(OC)c(OC)c3)n2C)n(CC)c1=O [Istradefylline, istradefylline] | 4.66 | 466 |  | 
2 | Cc1ncc(OC[C@@]2(c3cccc(F)c3)C[C@H]2C(=O)Nc2ccc(F)cn2)c(C)n1 [Lemborexant, lemborexant] | 4.2 | 420 | highly permeable | 
3 | C[C@@H](c1ncncc1F)[C@](O)(Cn1cncn1)c1ccc(F)cc1F [Voriconazole, voriconazole] |  |  |  | high permeability
